Drawing on patent US20250145594A1, “MODULATORS OF THE INTEGRATED STRESS PATHWAY” (Calico Life Sciences LLC, priority 2020, published 2025), this text covers EC50 for 22 compounds.

The term EC50 denotes the concentration needed to bring the measured effect to its halfway point.

Bounds are passed on as bounds.

The test has as its system ATF4 luciferase reporter in HEK293T cells. The experiment in a line: ATF4-Luc assay (in vitro model of VWMD). Type of test: cell-based, human. To be noted: Homo sapiens, HEK-293T, 7 h, HEK293T cells carrying the ATF4 luciferase reporter, 1 μg/mL tunicamycin, One Glo luminescence. The method, then:
In order to test exemplary compounds of the invention in a cellular context, a stable VWMD cell line was first constructed. The ATF4 reporter was prepared by fusing the human full-length ATF4 5′-UTR (NCBI Accession No. BC022088.2) in front of the firefly luciferase (FLuc) coding sequence lacking the initiator methionine as described in Sidrauski et al (eLife 2013). The construct was used to produce recombinant retroviruses using standard methods and the resulting viral supernatant was used to transduce HEK293T cells, which were then subsequently selected with puromycin to generate a stable cell line.
HEK293T cells carrying the ATF4 luciferase reporter were plated on polylysine coated 384-well plates (Greiner Bio-one) at 30,000 cells per well. Cells were treated the next day with 1 μg/mL tunicamycin and 200 nM of a compound of Formula (I) for 7 hours. Luminescence was measured using One Glo (Promega) as specified by the manufacturer. Cells were maintained in DMEM with L-glutamine supplemented with 10% heat-inactivated FBS (Gibco) and Antibiotic-Antimycotic solution (Gibco).
Table 4 below summarizes the EC50 data obtained using the ATF4-Luc assay for exemplary compounds of the invention.
In the case of `O=C(NC12CC(n3cc(C(=O)N4CCC(C(F)(F)F)C4)cn3)(C1)C2)[C@H]1C[C@@H](O)c2cc(Cl)ccc2O1` (stereo partly drawn) [Compound 535, (2R,4R)-6-chloro-4-hydroxy-N-(3-{4-[3-(trifluoromethyl)pyrrolidine-1-carbonyl]-1H-pyrazol-1-yl}bicyclo[1.1.1]pentan-1-yl)-3,4-dihydro-2H-1-benzopyran-2-carboxamide], the EC50 lay within 0.01 to 0.05 µM. Turning to `O=C(COc1ccc(Cl)c(F)c1)NC12CC(n3cc([C@H]4C[C@@H](OC(F)(F)F)C4)nn3)(C1)C2` [Compound 620, 2-(4-chloro-3-fluorophenoxy)-N-(3-{4-[(1s,3s)-3-(trifluoromethoxy)cyclobutyl]-1H-1,2,3-triazol-1-yl}bicyclo[1.1.1]pentan-1-yl)acetamide], the EC50 was less than 0.01 µM. Take `O=C(CO[C@H]1C[C@@H](OC(F)(F)F)C1)NC12CCC(NC(=O)[C@H]3C[C@@H](O)c4cc(C(F)(F)F)c(F)cc4O3)(CC1)C[C@@H]2O` [Compound 647, (2R,4R)-7-fluoro-4-hydroxy-N-[(3S)-3-hydroxy-4-(2-{[(1s,3R)-3-(trifluoromethoxy)cyclobutyl]oxy}acetamido)bicyclo[2.2.2]octan-1-yl]-6-(trifluoromethyl)-3,4-dihydro-2H-1-benzopyran-2-carboxamide]: the EC50 was less than 0.01 µM.

On to `C[Si]1(C)CCN(C(=O)c2cnn(C34CC(NC(=O)[C@H]5C[C@@H](O)c6cc(Cl)ccc6O5)(C3)C4)c2)C1` [Compound 401, (2R,4R)-6-chloro-N-{3-[4-(3,3-dimethyl-1,3-azasilolidine-1-carbonyl)-1H-pyrazol-1-yl]bicyclo[1.1.1]pentan-1-yl}-4-hydroxy-3,4-dihydro-2H-1-benzopyran-2-carboxamide], for which the 50% effective concentration (EC50) was 0.25 to 0.5 µM. As for `O=C(NC12CC(n3cc(O[C@H]4CC[C@H](OC(F)(F)F)C4)cn3)(C1)C2)[C@H]1C[C@@H](O)c2cc(Cl)ccc2O1` (racemic) [Compound 586, (2R,4R)-6-chloro-4-hydroxy-N-[3-(4-{[(1RS,3RS)-3-(trifluoromethoxy)cyclopentyl]oxy}-1H-pyrazol-1-yl)bicyclo[1.1.1]pentan-1-yl]-3,4-dihydro-2H-1-benzopyran-2-carboxamide], the EC50 lay in the range of 0.01 to 0.05 µM. The same measure for `O=C(NC12CC(n3cnc(-c4ccc(Cl)c(F)c4F)c3)(C1)C2)[C@H]1C[C@@H](O)c2cc(Cl)ccc2O1` [Compound 394, (2R,4R)-6-chloro-N-{3-[4-(4-chloro-2,3-difluorophenyl)-1H-imidazol-1-yl]bicyclo[1.1.1]pentan-1-yl}-4-hydroxy-3,4-dihydro-2H-1-benzopyran-2-carboxamide]: less than 0.01 µM. As to `O=C(NC12CC(c3cnc(OCCCOC(F)(F)F)o3)(C1)C2)[C@H]1C[C@@H](O)c2cc(Cl)c(F)cc2O1` [Compound 417, (2R,4R)-6-chloro-7-fluoro-4-hydroxy-N-(3-{2-[3-(trifluoromethoxy)propoxy]-1,3-oxazol-5-yl}bicyclo[1.1.1]pentan-1-yl)-3,4-dihydro-2H-1-benzopyran-2-carboxamide], the EC50 was less than 0.01 µM. On to `O=C(NC12CC(n3cc(N4CC[C@H](COC(F)(F)F)C4)cn3)(C1)C2)[C@H]1C[C@@H](O)c2cc(Cl)ccc2O1` [Compound 373, (2R,4R)-6-chloro-4-hydroxy-N-[3-(4-{(3S)-3-[(trifluoromethoxy)methyl]pyrrolidin-1-yl}-1H-pyrazol-1-yl)bicyclo[1.1.1]pentan-1-yl]-3,4-dihydro-2H-1-benzopyran-2-carboxamide], for which the EC50 lay within 0.05 to 0.25 µM.

As to `O=C(NC12CC(c3ccc(C(=O)N4CC(OCC(F)(F)F)C4)nc3)(C1)C2)[C@H]1C[C@@H](O)c2cc(Cl)ccc2O1` [Compound 533, (2R,4R)-6-chloro-4-hydroxy-N-(3-{6-[3-(2,2,2-trifluoroethoxy)azetidine-1-carbonyl]pyridin-3-yl}bicyclo[1.1.1]pentan-1-yl)-3,4-dihydro-2H-1-benzopyran-2-carboxamide], the 50% effective concentration (EC50) is less than 0.01 µM.

`O=C(CO[C@H]1C[C@@H](OC(F)(F)F)C1)NC12CCC(NC(=O)[C@H]3C[C@@H](O)c4cc(Cl)c(F)cc4O3)(CC1)[C@@H](O)C2` [Compound 490, (2R,4R)-6-chloro-7-fluoro-4-hydroxy-N-[(2S)-2-hydroxy-4-(2-{[(1s,3R)-3-(trifluoromethoxy)cyclobutyl]oxy}acetamido)bicyclo[2.2.2]octan-1-yl]-3,4-dihydro-2H-1-benzopyran-2-carboxamide]: the concentration for a half-maximal effect (EC50) was less than 0.01 µM. Turning to `COc1ccc2nn(C34CC(NC(=O)[C@H]5C[C@@H](O)c6cc(Cl)c(F)cc6O5)(C3)C4)cc2c1` [Compound 505, (2R,4R)-6-chloro-7-fluoro-4-hydroxy-N-[3-(5-methoxy-2H-indazol-2-yl)bicyclo[1.1.1]pentan-1-yl]-3,4-dihydro-2H-1-benzopyran-2-carboxamide], the 50% effective concentration (EC50) was less than 0.01 µM. For the compound `O=C(NC12CC(n3cc(CCCCOC(F)(F)F)nn3)(C1)C2)[C@H]1C[C@@H](O)c2cc(Cl)ccc2O1` [Compound 465, (2R,4R)-6-chloro-4-hydroxy-N-(3-{4-[4-(trifluoromethoxy)butyl]-1H-1,2,3-triazol-1-yl}bicyclo[1.1.1]pentan-1-yl)-3,4-dihydro-2H-1-benzopyran-2-carboxamide], the concentration giving a half-maximal response (EC50) was less than 0.01 µM. For `O=C(NC12CC(n3cc4cc(COCC(F)(F)F)ccc4n3)(C1)C2)[C@H]1C[C@@H](O)c2cc(Cl)c(F)cc2O1` [Compound 651, (2R,4R)-6-chloro-7-fluoro-4-hydroxy-N-(3-{5-[(2,2,2-trifluoroethoxy)methyl]-2H-indazol-2-yl}bicyclo[1.1.1]pentan-1-yl)-3,4-dihydro-2H-1-benzopyran-2-carboxamide], the concentration for a half-maximal effect (EC50) was less than 0.01 µM. On to `O=C(NC12CC(n3cc(-c4ccc(C(F)(F)F)cn4)cn3)(C1)C2)[C@H]1C[C@@H](O)c2cc(C(F)(F)F)ccc2O1` [Compound 354, (2R,4R)-4-hydroxy-6-(trifluoromethyl)-N-(3-{4-[5-(trifluoromethyl)pyridin-2-yl]-1H-pyrazol-1-yl}bicyclo[1.1.1]pentan-1-yl)-3,4-dihydro-2H-1-benzopyran-2-carboxamide], for which the concentration for a half-maximal effect (EC50) is less than 0.01 µM. Consider `O=C(NC12CC(n3cnc(C4CC(OC(F)(F)F)C4)c3)(C1)C2)[C@H]1C[C@@H](O)c2cc(C(F)(F)F)ccc2O1` (stereo partly drawn) [Compound 471, (2R,4R)-4-hydroxy-N-(3-{4-[(1s,3S)-3-(trifluoromethoxy)cyclobutyl]-1H-imidazol-1-yl}bicyclo[1.1.1]pentan-1-yl)-6-(trifluoromethyl)-3,4-dihydro-2H-1-benzopyran-2-carboxamide], for which the 50% effective concentration (EC50) was less than 0.01 µM. As for `O=C(NC12CC(n3cc(CCCCOC(F)(F)F)nn3)(C1)C2)[C@H]1C[C@@H](O)c2cc(Cl)c(F)cc2O1` [Compound 466, (2R,4R)-6-chloro-7-fluoro-4-hydroxy-N-(3-{4-[4-(trifluoromethoxy)butyl]-1H-1,2,3-triazol-1-yl}bicyclo[1.1.1]pentan-1-yl)-3,4-dihydro-2H-1-benzopyran-2-carboxamide], the half-maximal effective concentration (EC50) was less than 0.01 µM. In the case of `O=C(NC12CC(n3cc(C[C@H]4C[C@@H](OC(F)(F)F)C4)cn3)(C1)C2)[C@H]1C[C@@H](O)c2cc(Cl)c(F)cc2O1` [Compound 532, (2R,4R)-6-chloro-7-fluoro-4-hydroxy-N-[3-(4-{[(1s,3R)-3-(trifluoromethoxy)cyclobutyl]methyl}-1H-pyrazol-1-yl)bicyclo[1.1.1]pentan-1-yl]-3,4-dihydro-2H-1-benzopyran-2-carboxamide], the EC50 was less than 0.01 µM.

Consider `O=C(N[C@H]1CC[C@H](n2cc(OCCCOC(F)(F)F)cn2)CC1)[C@H]1C[C@@H](O)c2cc(Cl)c(F)cc2O1` [Compound 422, (2R,4R)-6-chloro-7-fluoro-4-hydroxy-N-[(1r,4R)-4-{4-[3-(trifluoromethoxy)propoxy]-1H-pyrazol-1-yl}cyclohexyl]-3,4-dihydro-2H-1-benzopyran-2-carboxamide], for which the half-maximal effective concentration (EC50) was less than 0.01 µM. On to `O=C(CO[C@H]1C[C@@H](OC(F)(F)F)C1)NC12CCC(NC(=O)[C@H]3C[C@@H](O)c4cc(Cl)ccc4O3)(CC1)C[C@@H]2O` [Compound 117, (2R,4R)-6-chloro-4-hydroxy-N-[(3S)-3-hydroxy-4-(2-{[(1s,3R)-3-(trifluoromethoxy)cyclobutyl]oxy}acetamido)bicyclo[2.2.2]octan-1-yl]-3,4-dihydro-2H-1-benzopyran-2-carboxamide], for which the EC50 was less than 0.01 µM. The same measure for `O=C(NC12CC(n3cc(N4CC[C@@H](OC(F)(F)F)C4)cn3)(C1)C2)[C@@H]1C[C@@H](O)c2cc(Cl)c(F)cc2O1` [Compound 379, (2S,4R)-6-chloro-7-fluoro-4-hydroxy-N-(3-{4-[(3R)-3-(trifluoromethoxy)pyrrolidin-1-yl]-1H-pyrazol-1-yl}bicyclo[1.1.1]pentan-1-yl)-3,4-dihydro-2H-1-benzopyran-2-carboxamide]: less than 0.01 µM; for `O=C(NC12CC(c3ccc(OCCOC(F)(F)F)nc3)(C1)C2)[C@H]1C[C@@H](O)c2cc(Cl)ccc2O1` [Compound 450, (2R,4R)-6-chloro-4-hydroxy-N-(3-{6-[2-(trifluoromethoxy)ethoxy]pyridin-3-yl}bicyclo[1.1.1]pentan-1-yl)-3,4-dihydro-2H-1-benzopyran-2-carboxamide]: 0.05 to 0.25 µM. The same measure for `O=C(NC12CC(n3cc(-c4ccc(Cl)c(F)c4)nn3)(C1)C2)[C@H]1C[C@@H](O)c2cc(Cl)ccc2O1` [Compound 358, (2R,4R)-6-chloro-N-{3-[4-(4-chloro-3-fluorophenyl)-1H-1,2,3-triazol-1-yl]bicyclo[1.1.1]pentan-1-yl}-4-hydroxy-3,4-dihydro-2H-1-benzopyran-2-carboxamide]: less than 0.01 µM.
